14 compounds from patent publication US9796733B2, “Imidazo-pyrazine derivatives useful as soluble guanylate cyclase activators” (Merck Sharp & Dohme Corp., priority 2014, dated 2017) can be followed below.

SMILES strings stand for the structures. pEC50: −log10 of the molar value.

One test concerns the target T1, sGC α1/β1 heterodimer (Homo sapiens, UniProt Q02108+Q02153).
T1 construct: expressed in transfected cells; host or cells: CHO-K1 (clone #7, CHO-K1/sGC)
T1 sequence (Q02108 1-690): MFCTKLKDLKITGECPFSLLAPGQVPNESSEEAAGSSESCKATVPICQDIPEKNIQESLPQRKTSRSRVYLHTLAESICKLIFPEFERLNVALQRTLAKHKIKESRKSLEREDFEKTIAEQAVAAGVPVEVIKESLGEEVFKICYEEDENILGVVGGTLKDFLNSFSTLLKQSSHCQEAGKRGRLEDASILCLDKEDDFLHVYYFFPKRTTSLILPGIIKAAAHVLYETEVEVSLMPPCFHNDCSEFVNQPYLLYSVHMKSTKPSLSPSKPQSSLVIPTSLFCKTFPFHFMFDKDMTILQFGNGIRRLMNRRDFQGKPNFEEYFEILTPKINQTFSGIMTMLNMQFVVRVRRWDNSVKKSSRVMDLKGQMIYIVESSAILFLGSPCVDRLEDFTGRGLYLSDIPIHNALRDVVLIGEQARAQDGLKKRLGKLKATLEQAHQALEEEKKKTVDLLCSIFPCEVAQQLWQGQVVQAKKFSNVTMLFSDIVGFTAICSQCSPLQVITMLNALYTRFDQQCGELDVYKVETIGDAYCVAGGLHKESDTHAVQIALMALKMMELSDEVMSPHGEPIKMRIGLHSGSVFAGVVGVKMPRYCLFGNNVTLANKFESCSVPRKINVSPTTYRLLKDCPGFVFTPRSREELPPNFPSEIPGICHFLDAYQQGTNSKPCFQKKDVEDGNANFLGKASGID
T1 sequence (Q02153 1-619): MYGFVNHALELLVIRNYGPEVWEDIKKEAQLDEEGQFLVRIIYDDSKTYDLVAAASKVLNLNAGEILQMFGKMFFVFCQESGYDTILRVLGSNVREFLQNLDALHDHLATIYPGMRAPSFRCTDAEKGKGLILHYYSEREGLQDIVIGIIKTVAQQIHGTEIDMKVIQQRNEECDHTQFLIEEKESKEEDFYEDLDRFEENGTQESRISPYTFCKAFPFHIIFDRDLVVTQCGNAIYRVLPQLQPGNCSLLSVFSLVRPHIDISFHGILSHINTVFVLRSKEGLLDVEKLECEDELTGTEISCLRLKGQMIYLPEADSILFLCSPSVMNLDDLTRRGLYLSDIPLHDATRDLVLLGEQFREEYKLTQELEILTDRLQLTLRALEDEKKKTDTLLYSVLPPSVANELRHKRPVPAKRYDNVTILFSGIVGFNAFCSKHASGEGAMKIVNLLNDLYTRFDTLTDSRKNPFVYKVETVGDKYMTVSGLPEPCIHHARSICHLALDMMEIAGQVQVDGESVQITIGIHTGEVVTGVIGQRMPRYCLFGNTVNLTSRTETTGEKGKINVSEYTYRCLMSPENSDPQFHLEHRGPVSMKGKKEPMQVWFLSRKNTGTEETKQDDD
As to the kind of experiment: Cell-based sGC functional assay (CASA assay): cGMP generation in CHO-K1/sGC cells, HTRF detection. Particulars: for Emax: CHO-K1, percent activation relative to standard Compound A in CHO-K1/sGC cells, read-out: % Act.; for pEC50: inflection point (IP) of cGMP generation in CHO-K1/sGC cells, 4P fit, activity expressed as percentage of Compound A. Put shortly: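 cGMP was quantified by HTRF after 1 hr, 37° C exposure of thawed CHO-K1 cells expressing sGC α1/β1 to compound, with or without 1 μM DETA-NO. IBMX (0.5 mM) blocked cGMP breakdown, and DMSO was 2.5% final. Percent of standard Compound A's maximal cGMP was fitted (4P) for inflection point.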

For test [1], the system named is Spontaneously hypertensive rats (SHR). Briefly: Acute efficacy in spontaneously hypertensive rats (SHR): telemetry blood pressure lowering after a single oral dose. Type of test: in vivo, rat. Put shortly:
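Values are the maximum peak fall in systolic pressure after one oral dose (mpk), computed hourly against baseline from a vehicle dose given the day before. Rats were conscious, male, spontaneously hypertensive, with femoral-aortic telemetry recording 30 s every 10 min, 14 days post-surgery.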

What is called pEC50 is the negative decadic logarithm of the EC50, by convention in mol/L. A lower pEC50 goes with a high EC50. With `CCCCc1nc(-c2nc(N)c3c(n2)NC(=O)C3(C)c2ccc(Cl)cn2)cn2cc(C)nc12` (stereo not drawn) [Example 168A, 4-amino-2-(8-butyl-2-methylimidazo[1,2-a]pyrazin-6-yl)-5-(5-chloropyridin-2-yl)-5-methyl-5H-pyrrolo[2,3-d]pyrimidin-6(7H)-one], at sGC α1/β1 heterodimer, the Emax was found to be 97% and the pEC50 is 6.82. Moreover, in test [1] (P.O. 1.0 mpk), the “Maximum peak decrease of systolic blood pressure (SBP) in SHR, Cat.” value (shortened to “Maximum peak decrease”) is “B (Category B=SBP in SHRs 20-40 mmHg)”.
For `Cc1cn2cc(-c3nc(N)c4c(n3)NC(=O)C4(C)c3ccc(F)cc3)nc(CCC(F)(F)C(F)(F)F)c2n1` (stereo not drawn) [Example 170A, 4-amino-5-(4-fluorophenyl)-5-methyl-2-(2-methyl-8-(3,3,4,4,4-pentafluorobutyl)imidazo [1,2-a]pyrazin-6-yl)-5H-pyrrolo[2,3-d]pyrimidin-6(7H)-one], at sGC α1/β1 heterodimer, the Emax is 104% and the pEC50 is 7.24. In test [1] (P.O. 1.0 mpk), the “Maximum peak decrease” value is “B (Category B=SBP in SHRs 20-40 mmHg)”.
The corresponding values for `Cc1cnc2c(CCC(F)(F)C(F)(F)F)nc(-c3nc(N)c4c(n3)NC(=O)C4(C)c3ccc(F)cc3)cn12` (stereo not drawn) [Example 171A, 4-amino-5-(4-fluorophenyl)-5-methyl-2-(3-methyl-8-(3,3,4,4,4-pentafluorobutyl)imidazo [1,2-a]pyrazin-6-yl)-5H-pyrrolo[2,3-d]pyrimidin-6(7H)-one] are 126%, 7.10 and “B (Category B=SBP in SHRs 20-40 mmHg)”.
As to `Cc1cn2cc(-c3nc(N)c4c(n3)NC(=O)C4(C)c3ccc(F)cn3)nc(CCC(F)(F)C(F)(F)F)c2n1` (stereo not drawn) [Example 172A, 4-amino-5-(5-fluoropyridin-2-yl)-5-methyl-2-(2-methyl-8-(3,3,4,4,4-pentafluorobutyl)imidazo [1,2-a]pyrazin-6-yl)-5H-pyrrolo[2,3-d]pyrimidin-6(7H)-one], at sGC α1/β1 heterodimer, the Emax came out at 124% and the pEC50 was 6.20. The “Maximum peak decrease” value in test [1] (P.O. 3.0 mpk) is given as “B (Category B=SBP in SHRs 20-40 mmHg)”.
For `Cc1cnc2c(CCC(F)(F)C(F)(F)F)nc(-c3nc(N)c4c(n3)NC(=O)C4(C)c3ccc(F)cn3)cn12` (stereo not drawn) [Example 173B, 4-amino-5-(5-fluoropyridin-2-yl)-5-methyl-2-(3-methyl-8-(3,3,4,4,4-pentafluorobutyl)imidazo [1,2-a]pyrazin-6-yl)-5H-pyrrolo[2,3-d]pyrimidin-6(7H)-one], on sGC α1/β1 heterodimer, the Emax came to 92% and the pEC50 was 6.81. Moreover, the “Maximum peak decrease” value in test [1] (P.O. 1.0 mpk) is “B (Category B=SBP in SHRs 20-40 mmHg)”.
For `COc1cn2cc(-c3nc(N)c4c(n3)NC(=O)C4(C)c3ccc(F)cc3)nc(CCC(F)(F)C(F)(F)F)c2n1` (stereo not drawn) [Example 174A, 4-amino-5-(4-fluorophenyl)-2-(2-methoxy-8-(3,3,4,4,4-pentafluorobutyl)imidazo [1,2-a]pyrazin-6-yl)-5-methyl-5H-pyrrolo[2,3-d]pyrimidin-6(7H)-one], at sGC α1/β1 heterodimer, the Emax amounted to 139% and the pEC50 is 6.97. Also, the “Maximum peak decrease” value in test [1] (P.O. 1.0 mpk) is listed as “B (Category B=SBP in SHRs 20-40 mmHg)”.
For `COc1cn2cc(-c3nc(N)c4c(n3)NC(=O)C4(C)c3ccc(F)cn3)nc(CCC(F)(F)C(F)(F)F)c2n1` (stereo not drawn) [Example 175B, 4-amino-5-(5-fluoropyridin-2-yl)-2-(2-methoxy-8-(3,3,4,4,4-pentafluorobutyl)imidazo [1,2-a]pyrazin-6-yl)-5-methyl-5H-pyrrolo[2,3-d]pyrimidin-6(7H)-one], in that order: 88%, 6.30 and “A (Category A=SBP in SHRs<20 mmHg)”.
For `COc1cn2cc(-c3nc(N)c4c(n3)NC(=O)C4(C)c3ccc(F)cc3)nc(CCCC(F)(F)F)c2n1` (stereo not drawn) [Example 176A, 4-amino-5-(4-fluorophenyl)-2-(2-methoxy-8-(4,4,4-trifluorobutyl)imidazo[1,2-a]pyrazin-6-yl)-5-methyl-5H-pyrrolo[2,3-d]pyrimidin-6(7H)-one], in that order: 107%, 7.10 and “B (Category B=SBP in SHRs 20-40 mmHg)”.
For the compound `CC1(c2ccc(Cl)c(F)c2)C(=O)Nc2nc(-c3cn4ccnc4c(CCC(F)(F)F)n3)nc(N)c21` (stereo not drawn) [Example 178B, 4-amino-5-(4-chloro-3-fluorophenyl)-5-methyl-2-(8-(3,3,3-trifluoropropyl)imidazo[1,2-a]pyrazin-6-yl)-5H-pyrrolo[2,3-d]pyrimidin-6(7H)-one], on sGC α1/β1 heterodimer, the Emax amounted to 106% and the pEC50 is 7.77. In test [1] (P.O. 0.3 mpk), the “Maximum peak decrease” value is listed as “B (Category B=SBP in SHRs 20-40 mmHg)”.
As for `CC1(c2ccc(Cl)cc2F)C(=O)Nc2nc(-c3cn4ccnc4c(CCC(F)(F)F)n3)nc(N)c21` (stereo not drawn) [Example 179A, 4-amino-5-(4-chloro-2-fluorophenyl)-5-methyl-2-(8-(3,3,3-trifluoropropyl)imidazo[1,2-a]pyrazin-6-yl)-5H-pyrrolo[2,3-d]pyrimidin-6(7H)-one], at sGC α1/β1 heterodimer, the Emax was 129% and the pEC50 is 7.35. Also, the “Maximum peak decrease” value in test [1] (P.O. 1.0 mpk) is reported as “C (Category C=SBP in SHRs>40 mmHg)”.
For `CC1(c2ccc(Br)cc2)C(=O)Nc2nc(-c3cn4ccnc4c(CCC(F)(F)F)n3)nc(N)c21` (stereo not drawn) [Example 181A, 4-amino-5-(4-bromophenyl)-5-methyl-2-(8-(3,3,3-trifluoropropyl)imidazo[1,2-a]pyrazin-6-yl)-5H-pyrrolo[2,3-d]pyrimidin-6(7H)-one], in that order: 132%, 7.25 and “B (Category B=SBP in SHRs 20-40 mmHg)”.
The corresponding values for `CC1(c2ccc(Cl)cc2)C(=O)Nc2nc(-c3cn4ccnc4c(CCC(F)(F)F)n3)nc(N)c21` (stereo not drawn) [Example 182A, 4-amino-5-(4-chlorophenyl)-5-methyl-2-(8-(3,3,3-trifluoropropyl)imidazo[1,2-a]pyrazin-6-yl)-5H-pyrrolo[2,3-d]pyrimidin-6(7H)-one] are 120%, 7.26 and “B (Category B=SBP in SHRs 20-40 mmHg)”.
The corresponding values for `CC1(c2ccc(F)c(F)c2)C(=O)Nc2nc(-c3cn4ccnc4c(CCC(F)(F)F)n3)nc(N)c21` (stereo not drawn) [Example 183B, 4-amino-5-(3,4-difluorophenyl)-5-methyl-2-(8-(3,3,3-trifluoropropyl)imidazo[1,2-a]pyrazin-6-yl)-5H-pyrrolo[2,3-d]pyrimidin-6(7H)-one] are 113%, 7.21 and “B (Category B=SBP in SHRs 20-40 mmHg)”.
In the case of `CC1(c2ccc(F)cc2)C(=O)Nc2nc(-c3cn4ccnc4c(CCC(F)(F)F)n3)nc(N)c21` (stereo not drawn) [Example 184A, 4-amino-5-(4-fluorophenyl)-5-methyl-2-(8-(3,3,3-trifluoropropyl)imidazo[1,2-a]pyrazin-6-yl)-5H-pyrrolo[2,3-d]pyrimidin-6(7H)-one], on sGC α1/β1 heterodimer, the Emax is 134% and the pEC50 was 6.75. Moreover, the “Maximum peak decrease” value in test [1] (P.O. 1.0 mpk) is “B (Category B=SBP in SHRs 20-40 mmHg)”.
